Measured values taken from patent US10919896B2, “Preparation and uses of pyrimidinone derivatives” (Cancer Research Technology Limited, priority 2016, dated 2021).

What was measured:
Cdc7/Dbf4 = Cdc7/Dbf4 (Homo sapiens, UniProt O00311); assay: Cdc7 Biochemical Assay Method 3: Cdc7/Dbf4 Enzyme TR-FRET Assay measuring pS40MCM2; settings: 1 μM ATP, read-out: Biochemical Method 3 (pIC50) (converted)
In short: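 TR-FRET read-out (terbium anti-rabbit donor, streptavidin-Alexa Fluor488 acceptor, anti-Mcm2 pS40 antibody) of peptide phosphorylation after 120 min at 25° C; reaction held 1 μM ATP, 100 nM biotin-tagged peptide substrate and 2.5 nM enzyme complex.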

[1] = test system: Cdc7 (pS40MCM2 levels in HCT116 cells); assay: Cdc7 Cell Pharmacodynamics Assay Method 2B: pS40MCM2 levels in HCT116 cells, 18 hours; assay type: cell-based; settings: Homo sapiens, HCT-116, read-out: Biomarker Method 2B (pEC50) (converted)
From the text: This protocol describes a method to investigate the inhibition of Cdc7 activity by measuring pS40MCM2 levels in cells, after treatment with compounds.
• HCT116 cells (ATCC, #CCL-247) • McCoys 5A with L-glutamine (Cellgro, #10-050-CV) • 10% FCS (Cellgro, #35-010-CV) • D-PBS without CaCl2 and MgCl2 (Cellgro, #21-031-CV) • Trypsin/EDTA (Cellgro, #25-052-CL) • BSA (Calbiochem, 126593) • Cell Extraction Buffer (Invitrogen FNN0011) • Protease inhibitor cocktail (Sigma P-2714) • PMSF 0.3M stock in DMSO (Sigma P7626) • Antibody-rabbit pMCM2 Ser40 (Abcam, AB133243) • Antibody-goat MCM2 (Bethyl #A300-122A) • Antibody-goat Anti Rabbit IgG HRP (Thermo, 31462) • SuperSignal ELISA Pico Chemiluminescent Substrate (Perbio Science UK Ltd 37069) • 10×PBS (Growcells, MRGF-6236) • Triton X100 (Sigma, P-T8787) • DMSO (Fisher, D128-1) • 2-Propanol (J. T. Baker, 9095-03) Method • Seed 1×10^6 HCT116 cells into each of two 175 cm^2 flask containing 30 mL Cell Growth Media and incubate at 37° C., 5% CO2 for 3 days. • Harvest the cells from one T175 cm^2 flask and count. • Dilute with Cell Growth Media to a cell density of 2×10^5. Dispense 100 μL to each well (20,000 HCT116 cells/well) of TC treated 96-well plate(s). • Allow cells to settle overnight in incubator set at 37° C. and 5% CO2. • Cell treatment: Transfer 0.25 μL/well from the compound plate to the wells of the cell plate(s). This is a 1:400 dilution of compound in the assay. • Once all cells are treated place the cells back to the incubator and incubate for either 6 hours (Method 2A) or 18 hours (Method 2B). • Dilute the capture antibody (total MCM2#A300-122A) 1 in 250 in the required volume of PBS (5 mL per assay plate, plus 5 mL for dead volume) and add 50 μL to each well of a Hybond plate except wells A12 & B12. Seal the plate and incubate at room temperature for a minimum of 2 hours. • Defrost aliquot of Invitrogen Cell Extraction Buffer (FNN0011) on ice and supplement with appropriate volume of both Sigma protease inhibitor cocktail (P-2714) and PMSF (final conc 1 mM from a 1 M stock in DMSO). • After the 6 hour or 18 hour cell treatment time, tap out the media from the assay plates and place them in the −70° C. freezer for at least 5 minutes. • Flick out the remaining liquid in the previously prepared capture Ab plate(s) and add 200 μL 2% BSA per well. Incubate for 1 hour at room temperature. • Remove plates from freezer and add 20 μL of ice cold complete lysis buffer. Incubate cells for 30 minutes at 4° C. • Add 30 μL per well 2% BSA • At the end of the 1 hour incubation, wash the Capture/ELISA plate(s) with Wash Buffer on the BioTek plate washer. • Transfer 40 μL per well of the lysis plate(s) to the same wells in the Capture/ELISA plate. Incubate cells overnight at 4° C. • At the end of the overnight incubation, wash the ELISA plate(s) with Wash Buffer on BioTek plate washer. • Prepare Detection Antibody Buffer and dispense 50 μL to all wells of ELISA plate(s) except wells G1 & H1. Cover plate and incubate at room temperature for 2 hours with gentle shaking. • At the end of the 2 hour incubation, wash the ELISA plate(s) with Wash Buffer on the BioTek plate washer. • Prepare the Conjugated Antibody Buffer and dispense 50 μL to all wells of ELISA plate(s). • Cover the plate and incubate at room temperature for 1 hour with gentle shaking. • At the end of the 1 hour incubation, wash the ELISA plate(s) with Wash Buffer on the BioTek plate washer. • Prepare Substrate Buffer and dispense 50 μL to all wells of ELISA plate(s). • Incubate for a minimum of 10 minutes and read plates on the EnVision 2100 Multilabel Reader (Mirror: Luminescence (404) & Luminescence 700 (212); Measurement Height: 6.5 mm; Measurement Time: 0.2 s). Method 3

[2] = test system: Cdc7 (pS53MCM2 levels in SW48 cells); assay: Cdc7 Cell Pharmacodynamics Assay Method 3: pS53MCM2 levels in SW48 cells, 6 hours; assay type: cell-based; settings: Homo sapiens, SW48, 6 h, read-out: Biomarker Method 3 (pEC50) (converted)
From the text: This protocol describes a method to investigate the inhibition of Cdc7 activity by measuring pS53MCM2 levels in cells, after treatment with compounds.
• SW48 cells • RPMI 1640 (Sigma, R5886) • 10% FCS (Sera Laboratories International Ltd, EU000F Batch:108005) • 100× L-Glutamine (Invitrogen, 25030-024) • D-Glucose Solution (10%) (Sigma, G8644) • HEPES Buffer Solution (Sigma, 83264) • Sodium Pyruvate (Sigma, S8636) • PBS (Fisger, BP399-4) • Trypsin/EDTA (Invitrogen 25300-054) • 2% BSA in PBS • Cell Extraction Buffer (Invitrogen FNN0011) • Protease inhibitor cocktail (Sigma P-2714) • PMSF 0.3M stock in DMSO (Sigma P7626) • Antibody-rabbit pMCM2 Ser53 (Bethyl #A300-756A) • Antibody-goat MCM2 (Bethyl #A300-122A) • Antibody-goat Anti Rabbit IgG HRP (Perbio Science UK Ltd 31462) • SuperSignal ELISA Pico Chemiluminescent Substrate (Perbio Science UK Ltd 37070) Method • Plate 30,000 SW48 cells per well in standard TC treated 96 well plate in 100 μL complete RPMI 1640 medium. • Allow cells to settle overnight in incubator set at 37° C. and 5% CO2. • Cell treatment: prepare a 384 well plate containing 80 μl PBS/well. The PBS should be at room temperature—to be referred to as intermediate plate. Transfer 2 μL of compound from mother plate to intermediate (daughter plate) 1:40 dilution, then 5 μL intermediate to cell (daughter) plate. • Once all cells are treated place the cells back to the incubator and incubate for 6 hours. • Dilute the capture antibody (total MCM2#A300-122A) 1 in 250 in the required volume of PBS (5 mL per assay plate, plus 5 mL for dead volume) and add 50 μL to each well of a Hybond plate. Seal the plate and incubate at room temperature for a minimum of 2 hours. • Defrost aliquot of Invitrogen Cell Extraction Buffer (FNN0011) on ice and supplement with appropriate volume of both Sigma protease inhibitor cocktail (P-2714) and PMSF (final conc 1 mM from a 1 M stock in DMSO). • After the 6 hour cell treatment time, tap out the media from the assay plates and place them in the −80° C. freezer for at least 5 minutes. • Remove plates from freezer and add 20 μL of ice cold complete lysis buffer, with the multidrop. Incubate cells for 30 minutes at 4° C. • Add 80 μL per well 2% BSA. • Flick out the remaining liquid from the capture plate and transfer 80 μL from the lysis plate to the same wells in the capture/ELISA plate, using the Biomek. Cover with plate seal and incubate plates overnight at 4° C. • Wash plates with PBS, remove any residual remaining liquid and add 50 μL per well of pMCM2 Ser53 antibody (#A300-756A) diluted 1 in 100 in 2% BSA. Cover plate and incubate at room temperature for 2 hours with gentle shaking. • Wash plates with PBS, remove any residual remaining liquid and Incubate with 50 μL goat anti rabbit antibody (1 in 800 dilution in 2% BSA), for 1 hour at room temperature. • Wash plates with PBS, remove any residual remaining liquid and add 50 μL mixed SuperSignal Pico substrate. • Incubate each plate for 5 minutes at room temperature shielding the plates from direct light (with a cover plate). Read plates with the luminescent detection.

Chain of Cdc7/Dbf4 (O00311 whole entry): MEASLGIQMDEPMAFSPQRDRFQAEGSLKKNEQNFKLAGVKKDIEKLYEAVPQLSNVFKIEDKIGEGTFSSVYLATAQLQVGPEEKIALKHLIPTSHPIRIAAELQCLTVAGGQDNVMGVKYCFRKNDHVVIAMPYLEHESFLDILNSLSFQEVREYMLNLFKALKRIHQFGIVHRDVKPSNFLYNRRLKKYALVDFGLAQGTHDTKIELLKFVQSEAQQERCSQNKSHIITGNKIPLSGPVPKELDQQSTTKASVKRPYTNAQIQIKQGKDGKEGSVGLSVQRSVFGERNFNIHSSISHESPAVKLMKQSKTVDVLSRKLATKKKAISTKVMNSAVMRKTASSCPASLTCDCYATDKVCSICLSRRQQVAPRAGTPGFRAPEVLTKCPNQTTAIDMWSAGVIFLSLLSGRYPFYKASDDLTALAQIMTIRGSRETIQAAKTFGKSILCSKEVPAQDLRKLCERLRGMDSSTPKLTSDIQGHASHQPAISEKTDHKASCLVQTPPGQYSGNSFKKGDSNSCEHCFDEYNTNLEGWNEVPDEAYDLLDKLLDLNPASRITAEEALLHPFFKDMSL
Chain of Cdc7/Dbf4 (Q9UBU7 whole entry partner): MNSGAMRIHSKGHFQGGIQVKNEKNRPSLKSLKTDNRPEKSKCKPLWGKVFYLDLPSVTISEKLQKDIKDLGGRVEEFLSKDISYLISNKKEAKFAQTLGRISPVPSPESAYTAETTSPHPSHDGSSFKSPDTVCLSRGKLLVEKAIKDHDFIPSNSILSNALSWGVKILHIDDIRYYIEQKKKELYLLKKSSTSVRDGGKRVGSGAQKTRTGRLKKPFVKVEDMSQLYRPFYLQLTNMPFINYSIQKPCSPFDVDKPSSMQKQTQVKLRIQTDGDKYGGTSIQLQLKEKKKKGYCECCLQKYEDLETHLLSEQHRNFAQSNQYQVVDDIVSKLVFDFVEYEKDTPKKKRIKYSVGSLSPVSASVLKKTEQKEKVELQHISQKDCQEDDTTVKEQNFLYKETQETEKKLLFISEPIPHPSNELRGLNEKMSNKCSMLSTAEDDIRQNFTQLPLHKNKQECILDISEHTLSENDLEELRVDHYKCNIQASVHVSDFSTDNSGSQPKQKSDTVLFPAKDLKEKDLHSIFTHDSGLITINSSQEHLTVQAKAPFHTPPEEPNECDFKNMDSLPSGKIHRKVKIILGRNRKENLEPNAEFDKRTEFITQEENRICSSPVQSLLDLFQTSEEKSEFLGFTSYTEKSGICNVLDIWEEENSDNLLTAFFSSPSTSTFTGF

| Compound | IC50 (Cdc7/Dbf4) | EC50 [1] | EC50 [2] |
| --- | --- | --- | --- |
| O=c1[nH]c(-c2ccnc(F)c2)nc(N2C3CCC2CNC3)c1Cl [Compound 262] | 0.851 nM | 19.5 nM | 347 nM |
| C[C@]1(N)CCN(c2nc(-c3ccnc(F)c3)[nH]c(=O)c2Cl)C1 [Compound 273] | 0.646 nM | 427 nM |  |
| O=c1[nH]c(-c2ccnc(F)c2)nc(N2CCN3CCC[C@H]3C2)c1Cl [Compound 348] | 1.95 nM | 257 nM |  |
| O=c1[nH]c(-c2ccnc(F)c2)nc(N2CCCOCC2)c1Cl [Compound 338] | 0.708 nM | 178 nM |  |
| O=c1[nH]c(-c2ccnc(F)c2)nc(N2CCN3CCC2CC3)c1Cl [Compound 293] | 0.363 nM | 29.5 nM |  |
| O=c1[nH]c(-c2ccnc(F)c2)nc(N2CCOCC(F)(F)C2)c1Cl [Compound 286] | 0.229 nM | 15.5 nM | 513 nM |
| O=c1[nH]c(-c2ccnc(F)c2)nc(N2CCN3CC(F)(F)C[C@H]3C2)c1Cl [Compound 347] | 3.63 nM | 316 nM |  |
| O=c1[nH]c(-c2ccncc2)nc(N2CC(F)(F)OC(F)(F)C2)c1Cl [Compound 413, 5-chloro-2-(4-pyridyl)-4-(2,2,6,6-tetrafluoromorpholin-4-yl)-1H-pyrimidin-6-one] | 1.38 nM | 309 nM |  |
| N#CC[C@H]1CN(c2nc(-c3ccnc(F)c3)[nH]c(=O)c2Cl)CCN1 [Compound 306] | 1.29 nM | 174 nM |  |
| O=c1[nH]c(-c2ccnc(F)c2)nc(N2CCCC3NCCC32)c1Cl (centres unmarked) [Compound 275] | 0.794 nM | 2090 nM |  |
| O=c1[nH]c(-c2ccnc(F)c2)nc(N2CC[C@@H]3CNC[C@@H]32)c1Cl [Compound 261] | 0.813 nM | 537 nM |  |
| O=C1COCCN(c2nc(-c3ccnc(F)c3)[nH]c(=O)c2Cl)C1 [Compound 208] | 0.49 nM | 64.6 nM |  |
| O=c1[nH]c(-c2ccnc(F)c2)nc(N2CCNC(C(F)(F)F)CC2)c1Cl (centres unmarked) [Compound 296] | 7.59 nM | 1020 nM |  |

Further lines, results first:

| IC50 (Cdc7/Dbf4) | EC50 [1] | EC50 [2] | Compound |
| --- | --- | --- | --- |
| 1.15 nM | 2.45 nM | 89.1 nM | CC1(C)CNCCN1c1nc(-c2ccnc(F)c2)[nH]c(=O)c1Cl [Compound 358] |
| 3.63 nM | 437 nM |  | C[C@@H]1CNCCCN1c1nc(-c2ccnc(F)c2)[nH]c(=O)c1Cl [Compound 352] |
| 0.724 nM | 57.5 nM | 1320 nM | C[C@@H]1CCCN1c1nc(-c2ccnc(F)c2)[nH]c(=O)c1Cl [Compound 279] |
| 5.89 nM | 437 nM | 2090 nM | C[C@H]1CN[C@@H](C(F)(F)F)CN1c1nc(-c2ccnc(F)c2)[nH]c(=O)c1Cl (racemic) [Compound 378, Cis-5-chloro-2-(2-fluoro-4-pyridyl)-4-[2-methyl-5-(trifluoromethyl)piperazin-1-yl]-1H-pyrimidin-6-one] |
| 2.09 nM | 200 nM |  | C[C@@H]1CN(c2nc(-c3ccnc(F)c3)[nH]c(=O)c2Cl)[C@H](C)CO1 [Compound 357] |
| 2.69 nM | 288 nM |  | CC1COCCCN1c1nc(-c2ccnc(F)c2)[nH]c(=O)c1Cl (centres unmarked) [Compound 355] |
| 2 nM | 27.5 nM |  | CC1OCCN(c2nc(-c3ccnc(F)c3)[nH]c(=O)c2Cl)C1C (centres unmarked) [Compound 359] |
| 4.07 nM | 331 nM |  | CN1CCCN(c2nc(-c3ccnc(F)c3)[nH]c(=O)c2Cl)CC1 [Compound 298] |
| 1.1 nM | 457 nM |  | CC[C@@H]1COCCN1c1nc(-c2ccnc(F)c2)[nH]c(=O)c1Cl [Compound 335] |
| 1.05 nM | 457 nM |  | C[C@@H]1CCCCN1c1nc(-c2ccnc(F)c2)[nH]c(=O)c1Cl [Compound 281] |
| 1.35 nM | 138 nM |  | CC1CCNCCN1c1nc(-c2ccnc(F)c2)[nH]c(=O)c1Cl (centres unmarked) [Compound 351] |
| 1.41 nM | 72.4 nM |  | O=c1[nH]c(-c2ccnc(F)c2)nc(N2CCCC23CCCNC3)c1Cl (centres unmarked) [Compound 260] |
| 1.07 nM | 282 nM |  | O=c1[nH]c(-c2ccnc(F)c2)nc(N2CCCCC2)c1Cl [Compound 277] |
| 3.24 nM | 912 nM |  | CC1(C)CN(c2nc(-c3ccnc(F)c3)[nH]c(=O)c2Cl)CCN1 [Compound 297] |
| 2.63 nM | 234 nM |  | CO[C@@H]1CCCN(c2nc(-c3ccnc(F)c3)[nH]c(=O)c2Cl)C1 [Compound 282] |
| 1.48 nM | 295 nM |  | CN[C@H]1CCN(c2nc(-c3ccnc(F)c3)[nH]c(=O)c2Cl)C1 [Compound 271] |
| 1.12 nM | 372 nM |  | C[C@@H]1CN(c2nc(-c3ccnc(F)c3)[nH]c(=O)c2Cl)CCO1 [Compound 337] |
